This is an account of results in US8871767B2, “2-arylimidazo[1,2-B]pyridazine, 2-phenylimidazo[1,2-A]pyridine, and 2-phenylimidazo[1,2-A]pyrazine derivatives” (Hengrui (USA) Ltd., priority 2010, dated 2014).

Read-outs that look alike come from different tables or passages of the source.

For assay [1], the system named is Hedgehog pathway activation on 10T1/2/Smo#3 cells (C3H10T1/2 cells transfected with human Smoothened receptor). Description: Hedgehog pathway activation on 10T1/2/Smo#3 cells measured by ALP activity. The format is cell-based. As to conditions: Mus musculus, C3H 10T1/2, 10T1/2/Smo#3 cells. How it is done: Hedgehog conditioned media was obtained by transfecting 293H cells with the full length gene encoding human Sonic Hedgehog (hShh) inserted into the pCMV6 expression vector, which contains a neomycin selectable marker and expresses the protein of interest with a C-terminal FLAG affinity tag. After selection in G418 containing media, conditioned media from Hedgehog expressing clones were tested for the ability to activate the hedgehog-responsive GLi-luciferase reporter in the Shh Light II cell line obtained by license from John Hopkins University (Taipale J, et al. Effects of oncogenic mutations in Smoothened and Patched can be reversed by cyclopamine. Nature 406: 1005-1009, 2000).
C3H10T1/2 cells were transfected with a pCMV expression vector containing the full length gene sequence encoding the human Smoothened receptor. Pooled cells, designated 10T1/2/Smo#3, growing in G418 selection media responded to activation by 10-20% conditioned hShh media with an approximate 5-10 fold increase in alkaline phosphaste (ALP) activity over untransfected parent C3H10T1/2 cells as measured by the conversion of the free acid of 4-methylumbelliferyl phosphate to a fluorescent product.
A test compound library was screened against hShh and 500 nM SAG (a direct agonist of the Smoothened receptor) activated 10T1/2/Smo#3 cells and Shh Light II reporter cells for the ability to block Hedgehog pathway activation. Concurrently, cell viability was measured by utilizing Celltiter-Blue® (Promega, Madison Wis.) viability assay. Active compounds were defined as those that inhibited Hedgehog signaling by greater than 50% with no concurrent loss in cell viability.
Their inhibitory activity against Hedgehog pathway activation on 10T1/2/Smo#3 cells as measured by ALP activity and Shh Light II reporter cells as measured by luciferase activity is shown in Table 1 below. In Table 1, +++ stands for an IC50 value that is less than 0.3 μM, ++ between 0.3 and 3 μM, + between 3 and 30 μM.
Additional data for compounds of the invention is shown below in Table 2. Their inhibitory activities against Hedgehog pathway activation are shown as IC50 values in μM on 10T1/2/Smo#3 cells as measured by ALP activity, or on Shh Light II reporter cells as measured by luciferase activity (hShh activation).

In assay [2] the test system is Hedgehog pathway activation (GLi-luciferase reporter) in Shh Light II reporter cells. The assay can be described thus: Hedgehog pathway activation on Shh Light II reporter cells measured by luciferase activity. It is filed as cell-based. As to conditions: Mus musculus, Shh Light II. In a few lines:
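Shh Light II reporter cells carrying a hedgehog-responsive GLi-luciferase reporter were stimulated either with 500 nM SAG, a direct Smoothened agonist, or with conditioned media containing human Sonic Hedgehog (hShh). Test compounds were evaluated for blocking this pathway activation, quantified by luciferase activity. Cell viability was monitored in parallel with the Celltiter-Blue® assay.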

Where [3] appears, read: hShh activation, ALP activity, read-out: 10T1/2/Smo#3 ALP activity (hShh Activation).
Setting [4] is: SAG activation (500 nM SAG), read-out: Shh Light II luciferase activity (SAG activation).
The mark [5] stands for this setting: hShh activation, read-out: Shh Light II luciferase activity (hShh activation).
Where [6] appears, read: measured by ALP activity, read-out: ALP (IC50, inhibition of Hedgehog pathway activation).
[7] abbreviates: hShh activation, read-out: Shh (IC50, inhibition of Hedgehog pathway activation).

Regarding `COc1ccc2nc(-c3ccc(C)c(NC(=O)C(C)(C)C)c3)cn2n1` [Example 4, N-(5-(6-methoxyimidazo[1,2-b]pyridazin-2-yl)-2-methylphenyl)pivalamide], the figures for the IC50 in assay [1] (setting [3]), in assay [2] (setting [4]) and in assay [2] (setting [5]) were 300 to 3000 nM, 300 to 3000 nM and 3000 to 30000 nM, respectively.
With `COC(=O)CCCCCCC(=O)Nc1ccc(-c2ccc3nc(-c4ccc(C)c(NC(=O)C(C)(C)C)c4)cn3n2)cc1` [compound 556], the IC50 worked out at 737 nM in assay [1] (setting [6]) and 395 nM in assay [2] (setting [7]).
In the case of `CC(C)(C)C(=O)Nc1cc(-c2cn3cc(-c4ccccc4F)ccc3n2)ccc1C(F)(F)F` [Example 83, N-(5-(6-(2-fluorophenyl)imidazo[1,2-a]pyridin-2-yl)-2-(trifluoromethyl)phenyl)pivalamide], the IC50 is 300 to 3000 nM in assay [1] (setting [3]); 1350 nM in assay [1] (setting [6]); 300 to 3000 nM in assay [2] (setting [4]); 1010 nM in assay [2] (setting [7]); 300 to 3000 nM in assay [2] (setting [5]).
As for `Cc1c(-c2ccccc2)nc2ccc(NC3CCN(Cc4ccccc4)CC3)nn12` [Example 168, N-(1-benzylpiperidin-4-yl)-3-methyl-2-phenylimidazo[1,2-b]pyridazin-6-amine], the IC50 in assay [1] (setting [3]) is 300 to 3000 nM; in assay [1] (setting [6]), 2980 nM; in assay [2] (setting [4]) it was 300 to 3000 nM; in assay [2] (setting [7]) it was 1920 nM; in assay [2] (setting [5]), 300 to 3000 nM.
Consider `O=C(Nc1cc(-c2cn3nc(-c4cccnc4C(F)(F)F)ccc3n2)ccc1Cl)C1CCCC1` [Example 671, N-(2-chloro-5-(6-(2-(trifluoromethyl)pyridin-3-yl)imidazo[1,2-b]pyridazin-2-yl)phenyl)cyclopentanecarboxamide], for which the IC50 was 315 nM in assay [1] (setting [6]) and 24 nM in assay [2] (setting [7]).
As to `CCN(CC)S(=O)(=O)c1cc(-c2cn3nc(-c4cccnc4C(F)(F)F)ccc3n2)ccc1Cl` [Example 703, 2-chloro-N,N-diethyl-5-(6-(2-(trifluoromethyl)pyridin-3-yl)imidazo[1,2-b]pyridazin-2-yl)benzenesulfonamide], the IC50 in assay [1] (setting [6]) was over 10000 nM; in assay [2] (setting [7]), 1600 nM.
With `CC(C)(C)C(=O)Nc1cc(-c2cn3nc(-c4ccccc4C(F)(F)F)ccc3n2)ccc1C#N` [Example 225, N-(2-cyano-5-(6-(2-(trifluoromethyl)phenyl)imidazo[1,2-b]pyridazin-2-yl)phenyl)pivalamide], the IC50 in assay [1] (setting [3]) was under 300 nM; in assay [1] (setting [6]), 65 nM; in assay [2] (setting [4]), 3000 to 30000 nM; in assay [2] (setting [7]), 48 nM; in assay [2] (setting [5]), under 300 nM.
`Cc1c(-c2cccc(NC(=O)C3CCCCC3)c2)nc2ncccn12` [Example 92, N-(3-(3-methylimidazo[1,2-a]pyrimidin-2-yl)phenyl)cyclohexanecarboxamide]: the IC50 in assay [1] (setting [3]), in assay [2] (setting [4]) and in assay [2] (setting [5]) was 3000 to 30000 nM in each case.
Take `COc1ccc2nc(-c3cc(NC(=O)C4CC4)ccc3Cl)cn2n1` [Example 116, N-(4-chloro-3-(6-methoxyimidazo[1,2-b]pyridazin-2-yl)phenyl)cyclopropanecarboxamide]: the IC50 in assay [1] (setting [6]) was over 10000 nM; in assay [2] (setting [7]) it was 9650 nM.
With `O=S(=O)(NC1CC1)c1cc(-c2cn3nc(-c4cccnc4C(F)(F)F)ccc3n2)ccc1Cl` [Example 702, 2-chloro-N-cyclopropyl-5-(6-(2-(trifluoromethyl)pyridin-3-yl)imidazo[1,2-b]pyridazin-2-yl)benzenesulfonamide], the IC50 was over 10000 nM in assay [1] (setting [6]) and 3980 nM in assay [2] (setting [7]).
The like results for `CC(C)(C)C(=O)Nc1cc(-c2cn3nc(-c4cccnc4C(F)(F)F)ccc3n2)ccc1F` [Example 658, N-(2-fluoro-5-(6-(2-(trifluoromethyl)pyridin-3-yl)imidazo[1,2-b]pyridazin-2-yl)phenyl)pivalamide] were, in that order, 85 nM and 27 nM.
On to `Cc1ccc(-c2cn3nc(-c4csc(N5CCOCC5)n4)ccc3n2)cc1NC(=O)C(C)(C)C` [Example 448, N-(2-methyl-5-(6-(2-morpholinothiazol-4-yl)imidazo[1,2-b]pyridazin-2-yl)phenyl)pivalamide], for which the values for the IC50 in assay [1] (setting [6]) and in assay [2] (setting [7]) were 643 nM and 1280 nM, respectively.
For the compound `Cc1ccc(-c2cn3nc(N4CCC(C(N)=O)CC4)ccc3n2)cc1NC(=O)C(C)(C)C` [compound 542], the IC50 in assay [1] (setting [3]) was under 300 nM; in assay [1] (setting [6]), 88 nM; in assay [2] (setting [4]) it was 300 to 3000 nM; in assay [2] (setting [7]), 94 nM; in assay [2] (setting [5]) it was under 300 nM.
Turning to `CC(C)(C)C(=O)Nc1cc(-c2cn3nc(Cl)ccc3n2)ccc1C(F)(F)F` [Example 126, N-(5-(6-chloroimidazo[1,2-b]pyridazin-2-yl)-2-(trifluoromethyl)phenyl)pivalamide], the values for the IC50 in assay [1] (setting [6]) and in assay [2] (setting [7]) were 5570 nM and 7720 nM, respectively.
On to `CC(C)(C)C(=O)Nc1cc(-c2cn3nc(NCCO)ccc3n2)ccc1C(F)(F)F` [Example 304, N-(5-(6-(2-hydroxyethylamino)imidazo[1,2-b]pyridazin-2-yl)-2-(trifluoromethyl)phenyl)pivalamide], for which the results for the IC50 in assay [1] (setting [6]) and in assay [2] (setting [7]) were 393 nM and 559 nM, respectively.
`Cc1ccc(-c2cn3nc(NCc4ccc(C(=O)Nc5ccccc5N)cc4)ccc3n2)cc1NC(=O)C(C)(C)C` [compound 599]: the IC50 in assay [1] (setting [6]) was found to be 248 nM; in assay [2] (setting [7]) it was 48 nM.
Regarding `O=C(Nc1cc(-c2cn3nc(-c4cccnc4C(F)(F)F)ccc3n2)ccc1Cl)N1CCCC1` [Example 656, N-(2-chloro-5-(6-(2-(trifluoromethyl)pyridin-3-yl)imidazo[1,2-b]pyridazin-2-yl)phenyl)pyrrolidine-1-carboxamide], the IC50 in assay [1] (setting [6]) was 117 nM; in assay [2] (setting [7]) it was 38 nM.
For `CC(C)(C)C(=O)Nc1cc(-c2cn3nc(-c4cccc(O)c4)ccc3n2)ccc1C(F)(F)F` [Example 242, N-(5-(6-(3-hydroxyphenyl)imidazo[1,2-b]pyridazin-2-yl)-2-(trifluoromethyl)phenyl)pivalamide], the IC50 in assay [1] (setting [6]) was 446 nM; in assay [2] (setting [7]), 402 nM.
Take `COc1cc(CNc2cc(-c3cn4nc(OC)ccc4n3)ccc2C)cc(OC)c1` [Example 103, N-(3,5-dimethoxybenzyl)-5-(6-methoxyimidazo[1,2-b]pyridazin-2-yl)-2-methylaniline]: the figures for the IC50 in assay [1] (setting [6]) and in assay [2] (setting [7]) were 3930 nM and over 10000 nM, respectively.
`CSCCNc1ccc2nc(-c3ccc(C(F)(F)F)c(NC(=O)C(C)(C)C)c3)cn2n1` [Example 300, N-(5-(6-(2-(methylthio)ethylamino)imidazo[1,2-b]pyridazin-2-yl)-2-(trifluoromethyl)phenyl)pivalamide]: the IC50 is 300 to 3000 nM in assay [1] (setting [3]); 703 nM in assay [1] (setting [6]); under 300 nM in assay [2] (setting [4]); 535 nM in assay [2] (setting [7]); 300 to 3000 nM in assay [2] (setting [5]).
For `CC(C)Oc1ccc(F)c(-c2ccc3nc(-c4ccc(C(F)(F)F)c(NC(=O)C(C)(C)C)c4)cn3n2)c1` [Example 252, N-(5-(6-(2-fluoro-5-isopropoxyphenyl)imidazo[1,2-b]pyridazin-2-yl)-2-(trifluoromethyl)phenyl)pivalamide], the IC50 turned out to be 392 nM in assay [1] (setting [6]) and 722 nM in assay [2] (setting [7]).
For `Cc1ccc(-c2nc3ccc(Cl)nn3c2C)cc1NC(=O)C(C)(C)C` [Example 311, N-(5-(6-chloro-3-methylimidazo[1,2-b]pyridazin-2-yl)-2-methylphenyl)pivalamide], the IC50 came out at 2420 nM in assay [1] (setting [6]) and 2080 nM in assay [2] (setting [7]).
